Read-outs that look alike come from different tables or passages of the source.
System: cancer cells
Experiment: MTS cell growth inhibition assay (72 hours)
Format: cell-based
How it was run: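 Cells in DMEM with 1% FBS, seeded 18 h, then compound-treated 72 h at 37 °C. Viability by MTS/PMS for 4 h, formazan absorbance at 492 nm; IC50 taken as concentration giving 50% absorbance drop, activity banded by percent inhibition.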

[1] = Homo sapiens, DLD-1, 72 h, DLD-1 cells, read-out: DLD-1 MTS 72 hr at 10 μM
[2] = Homo sapiens, KATO III, 72 h, KATO III cells, read-out: KATO III MTS 72 hr at 10 μM
[3] = Homo sapiens, MDA-MB-231, 72 h, MDA-MB-231 cells, read-out: MDA-MB-231 MTS 72 hr at 10 μM
[4] = Homo sapiens, NCI-H1299, 72 h, NCI-H1299 cells, read-out: NCI-H1299 MTS 72 hr at 10 μM
[5] = PaCa-2, 72 h, PACA-2 cells, read-out: PACA-2 MTS 72 hr at 10 μM

Row | SMILES | inhibition at 10 µM [1] [%] | inhibition at 10 µM [2] [%] | inhibition at 10 µM [3] [%] | inhibition at 10 µM [4] [%] | inhibition at 10 µM [5] [%]
1 | Nc1nc(NC2Cc3ccccc3N(S(=O)(=O)c3cccc(Cl)c3F)C2)c2cn[nH]c2n1 (stereo not drawn) [Compound 78, N4-(1-(3-chloro-2-fluorophenylsulfonyl)-1,2,3,4-tetrahydroquinolin-3-yl)-1H-pyrazolo[3,4-d]pyrimidine-4,6-diamine] | < 50 | < 50 | < 50 | < 50 | < 50
2 | Nc1nc(NC2CCN(S(=O)(=O)c3ccc(OC(F)(F)F)cc3)c3ccccc3C2)c2cn[nH]c2n1 (stereo not drawn) [Compound 185, N4-(1-{[4-(trifluoromethoxy)phenyl]sulfonyl}-2,3,4,5-tetrahydro-1H-1-benzazepin-4-yl)-1H-pyrazolo[3,4-d]pyrimidine-4,6-diamine] | < 50 | < 50 | < 50 | < 50 | < 50
3 | Nc1nc(NC2Cc3ccccc3N(Cc3ccc(OCc4ccccc4)cc3)C2)c2cn[nH]c2n1 (stereo not drawn) [Compound 155, N4-{1-[4-(benzyloxy)benzyl]-1,2,3,4-tetrahydroquinolin-3-yl}-1H-pyrazolo[3,4-d]pyrimidine-4,6-diamine] | > 79 | > 79 | > 79 | > 79 | > 79
4 | Nc1nc(NC2Cc3ccccc3N(Cc3c(F)cccc3Cl)C2)c2cn[nH]c2n1 (stereo not drawn) [Compound 140, N4-[1-(2-chloro-6-fluorobenzyl)-1,2,3,4-tetrahydroquinolin-3-yl]-1H-pyrazolo[3,4-d]pyrimidine-4,6-diamine] | > 79 | > 79 | > 79 | 50 to 79 | > 79
5 | Nc1nc(NC2CCN(S(=O)(=O)c3ccc(Cl)c(Cl)c3)c3ccccc3C2)c2cn[nH]c2n1 (stereo not drawn) [Compound 179, N4-{1-[(3,4-dichlorophenyl)sulfonyl]-2,3,4,5-tetrahydro-1H-1-benzazepin-4-yl}-1H-pyrazolo[3,4-d]pyrimidine-4,6-diamine] | 50 to 79 | 50 to 79 | < 50 | < 50 | < 50
6 | N#Cc1ccc(S(=O)(=O)N2CC(Nc3nc(N)nc4[nH]ncc34)Cc3ccccc32)cc1 (stereo not drawn) [Compound 30, 4-(3-(6-amino-1H-pyrazolo[3,4-d]pyrimidin-4-ylamino)-3,4-dihydroquinolin-1(2H)-ylsulfonyl)benzonitrile] | < 50 | < 50 | < 50 | < 50 | < 50
7 | Cc1ccccc1CNC(=O)N1CC(Nc2nc(N)nc3[nH]ncc23)Cc2ccccc21 (stereo not drawn) [Compound 111, 3-(6-amino-1H-pyrazolo[3,4-d]pyrimidin-4-ylamino)-N-(2-methylbenzyl)-3,4-dihydroquinoline-1(2H)-carboxamide] | < 50 | < 50 | < 50 | < 50 | < 50
8 | Nc1nc(NC2CCN(S(=O)(=O)c3ccc(F)c(F)c3)c3ccccc3C2)c2cn[nH]c2n1 (stereo not drawn) [Compound 182, N4-{1-[(3,4-difluorophenyl)sulfonyl]-2,3,4,5-tetrahydro-1H-1-benzazepin-4-yl}-1H-pyrazolo[3,4-d]pyrimidine-4,6-diamine] | < 50 | < 50 | < 50 | < 50 | < 50
9 | COc1ccc(Br)cc1CN1CC(Nc2nc(N)nc3[nH]ncc23)Cc2ccccc21 (stereo not drawn) [Compound 144, N4-[1-(5-bromo-2-methoxybenzyl)-1,2,3,4-tetrahydroquinolin-3-yl]-1H-pyrazolo[3,4-d]pyrimidine-4,6-diamine] | > 79 | > 79 | > 79 | > 79 | > 79
10 | Nc1nc(NC2Cc3ccccc3N(C(=O)NCc3ccc(F)cc3)C2)c2cn[nH]c2n1 (stereo not drawn) [Compound 115, 3-(6-amino-1H-pyrazolo[3,4-d]pyrimidin-4-ylamino)-N-(4-fluorobenzyl)-3,4-dihydroquinoline-1(2H)-carboxamide] | < 50 | < 50 | < 50 | < 50 | < 50
11 | Nc1nc(NC2CCN(S(=O)(=O)c3ccc(Cl)c(C(F)(F)F)c3)c3ccccc3C2)c2cn[nH]c2n1 (stereo not drawn) [Compound 170, N4-(1-{[4-chloro-3-(trifluoromethyl)phenyl]sulfonyl}-2,3,4,5-tetrahydro-1H-1-benzazepin-4-yl)-1H-pyrazolo[3,4-d]pyrimidine-4,6-diamine] | < 50 | > 79 | > 79 | < 50 | 50 to 79
12 | Nc1nc(NC2Cc3ccccc3N(S(=O)(=O)c3ccc(F)c(F)c3)C2)c2cn[nH]c2n1 (stereo not drawn) [Compound 46, N4-(1-(3,4-difluorophenylsulfonyl)-1,2,3,4-tetrahydroquinolin-3-yl)-1H-pyrazolo[3,4-d]pyrimidine-4,6-diamine] | < 50 | < 50 | < 50 | < 50 | < 50
13 | Nc1nc(NC2Cc3ccccc3N(Cc3cccc(Oc4ccc(Cl)cc4)c3)C2)c2cn[nH]c2n1 (stereo not drawn) [Compound 164, N4-{1-[3-(4-chlorophenoxy)benzyl]-1,2,3,4-tetrahydroquinolin-3-yl}-1H-pyrazolo[3,4-d]pyrimidine-4,6-diamine] | 50 to 79 | 50 to 79 | < 50 | < 50 | < 50
14 | Nc1nc(NC2Cc3ccccc3N(C(=O)Nc3ccc(C(F)(F)F)cc3)C2)c2cn[nH]c2n1 (stereo not drawn) [Compound 117, 3-(6-amino-1H-pyrazolo[3,4-d]pyrimidin-4-ylamino)-N-(4-(trifluoromethyl)phenyl)-3,4-dihydroquinoline-1(2H)-carboxamide] | < 50 | < 50 | < 50 | < 50 | < 50
15 | Nc1nc(NC2Cc3ccccc3N(S(=O)(=O)c3cccc(Br)c3)C2)c2cn[nH]c2n1 (stereo not drawn) [Compound 41, N4-(1-(3-bromophenylsulfonyl)-1,2,3,4-tetrahydroquinolin-3-yl)-1H-pyrazolo[3,4-d]pyrimidine-4,6-diamine] | < 50 | > 79 | < 50 | < 50 | < 50
16 | Nc1nc(NC2Cc3ccccc3N(C(=O)C(=O)c3c[nH]c4ccccc34)C2)c2cn[nH]c2n1 (stereo not drawn) [Compound 83, 1-(3-(6-amino-1H-pyrazolo[3,4-d]pyrimidin-4-ylamino)-3,4-dihydroquinolin-1(2H)-yl)-2-(1H-indol-3-yl)ethane-1,2-dione] | < 50 | < 50 | < 50 | < 50 | < 50
17 | COC(=O)CCc1ccc(S(=O)(=O)N2CC(Nc3nc(N)nc4[nH]ncc34)Cc3ccccc32)cc1 (stereo not drawn) [Compound 73, methyl 3-(4-(3-(6-amino-1H-pyrazolo[3,4-d]pyrimidin-4-ylamino)-3,4-dihydroquinolin-1(2H)-ylsulfonyl)phenyl)propanoate] | < 50 | < 50 | < 50 | < 50 | < 50
18 | COc1ccc(Oc2ccccc2CN2CC(Nc3nc(N)nc4[nH]ncc34)Cc3ccccc32)cc1 (stereo not drawn) [Compound 153, N4-{1-[2-(4-methoxyphenoxy)benzyl]-1,2,3,4-tetrahydroquinolin-3-yl}-1H-pyrazolo[3,4-d]pyrimidine-4,6-diamine] | 50 to 79 | 50 to 79 | < 50 | < 50 | < 50
19 | Nc1nc(NC2Cc3ccccc3N(S(=O)(=O)c3cccc(NC(=O)Nc4cccc(F)c4)c3)C2)c2cn[nH]c2n1 (stereo not drawn) [Compound 219, 1-[3-({3-[(6-amino-1H-pyrazolo[3,4-d]pyrimidin-4-yl)amino]-3,4-dihydroquinolin-1(2H)-yl}sulfonyl)phenyl]-3-(3-fluorophenyl)urea] | > 79 | > 79 | > 79 | > 79 | > 79
20 | Nc1nc(NC2Cc3ccccc3N(S(=O)(=O)c3ccc(NC(=O)Nc4ccc5ccccc5c4)cc3)C2)c2cn[nH]c2n1 (stereo not drawn) [Compound 189, 1-[4-({3-[(6-amino-1H-pyrazolo[3,4-d]pyrimidin-4-yl)amino]-3,4-dihydroquinolin-1(2H)-yl}sulfonyl)phenyl]-3-(2-naphthyl)urea] | > 79 | > 79 | > 79 | > 79 | > 79
21 | N#Cc1cc(CN2CC(Nc3nc(N)nc4[nH]ncc34)Cc3ccccc32)ccc1F (stereo not drawn) [Compound 138, 5-({3-[(6-amino-1H-pyrazolo[3,4-d]pyrimidin-4-yl)amino]-3,4-dihydroquinolin-1(2H)-yl}methyl)-2-fluorobenzonitrile] | < 50 | < 50 | < 50 | < 50 | < 50
